Results on 13 compounds are retold here after patent publication US12522594B2, “2-heteroaryl-3-oxo-2,3-dihydropyridazine-4-carboxamides for the treatment of cancer” (Deutsches Krebsforschungszentrum, priority 2017, dated 2026).

For orientation: IC50 means the point on the concentration scale where inhibition reaches its midpoint.

“And” between values parts separate entries of the source, which are not always exact repeats. Identical values can stand only once.

Holding throughout (type): cell-based
Assay [1] addresses T1, AHR (Homo sapiens, UniProt P35869).
T1 sequence (P35869 11-848): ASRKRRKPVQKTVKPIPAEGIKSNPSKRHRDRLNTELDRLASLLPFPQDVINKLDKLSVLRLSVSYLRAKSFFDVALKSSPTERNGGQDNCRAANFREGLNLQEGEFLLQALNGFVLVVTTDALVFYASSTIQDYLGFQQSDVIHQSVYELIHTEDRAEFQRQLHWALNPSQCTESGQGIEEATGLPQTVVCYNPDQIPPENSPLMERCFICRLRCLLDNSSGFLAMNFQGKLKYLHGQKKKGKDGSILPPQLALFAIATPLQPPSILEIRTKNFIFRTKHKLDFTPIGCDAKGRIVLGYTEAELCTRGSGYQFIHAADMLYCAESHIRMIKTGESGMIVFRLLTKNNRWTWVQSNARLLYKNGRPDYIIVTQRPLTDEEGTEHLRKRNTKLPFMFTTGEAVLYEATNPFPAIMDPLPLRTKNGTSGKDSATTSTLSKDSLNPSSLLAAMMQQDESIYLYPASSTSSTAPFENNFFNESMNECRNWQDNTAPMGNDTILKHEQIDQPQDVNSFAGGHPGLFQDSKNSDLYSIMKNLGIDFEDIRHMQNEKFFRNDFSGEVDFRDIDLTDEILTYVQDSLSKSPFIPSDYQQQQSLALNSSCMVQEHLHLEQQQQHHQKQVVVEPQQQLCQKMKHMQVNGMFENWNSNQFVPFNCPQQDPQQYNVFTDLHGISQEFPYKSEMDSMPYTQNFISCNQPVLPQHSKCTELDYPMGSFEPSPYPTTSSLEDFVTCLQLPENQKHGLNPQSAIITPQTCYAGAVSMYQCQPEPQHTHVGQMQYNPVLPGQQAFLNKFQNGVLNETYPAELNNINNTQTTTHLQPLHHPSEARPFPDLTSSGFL
The experiment in a line: In vitro assay 2: agonism in human cell line (transactivation assay, U87 cells, DRE firefly luciferase reporter). More on the design: host or cells: U87 glioblastoma cells, stably transfected with DRE firefly luciferase and renilla reporter constructs. The settings on record: no kynurenic acid, 20 hours, read-out: Assay 2: AHR-luc Hum Agonism IC50. A digest of the protocol: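 U87 glioblastoma cells with endogenous AHR, stably carrying DRE-driven firefly luciferase and constitutive renilla reporters. 300 uM kynurenic acid served as positive activation control; data normalized to positive and negative controls.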
In general terms: Reporter assays use an easily measured gene product as a stand-in for the process of interest.

Assay [2] has as its target T1, AHR. The experiment in a line: In vitro assay 1: antagonism in human cell line (transactivation assay, U87 cells prestimulated with kynurenic acid, DRE firefly luciferase reporter). The settings on record: 150 uM kynurenic acid, 20 hours, read-out: Assay 1: AHR-luc Hum Antagonism IC50. More on the design: host or cells: U87 glioblastoma cells, stably transfected with DRE firefly luciferase and renilla reporter constructs. A digest of the protocol:
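U87 glioblastoma cells with endogenous AHR, stably carrying a DRE-driven firefly luciferase reporter and a constitutive renilla reporter. Cells prestimulated with the AHR agonist kynurenic acid before compound addition; data normalized to positive and negative controls.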

A further assay deals with human monocytes. Description: In vitro assay 4: rescue of TNFα production from human primary monocytes (LPS + KA). The settings on record: one value per donor; for Individual Donors Conc of highest rescue: concentration (of 1, 0.3, 0.1 uM tested) at which highest TNFα rescue was observed; for Individual Donors % rescue TNFα normalised to ref cmpd: human monocytes, 10 ng/mL LPS + 200 uM KA, 18 hours, highest percent rescue relative to highest rescue with GNF-351. Here is the method: In Vitro Assay 4: Rescue of TNFα Production from Human Primary Monocytes
The ability of the substances to enhance immune cell activity was determined. The substances were tested for their capacity to reverse KA-induced inhibition of TNFα production by LPS-stimulated human monocytes. Human monocytes were purified by negative selection from donor PBMCs using Miltenyi beads and seeded at 2×10^5 cells/well in complete growth medium (RPMI 1640, 10% FCS). Monocytes were incubated with 10 ng/mL LPS (O127:B8, #L4516, Sigma) and 200 uM KA (#3375, Sigma) and substances were added at concentrations of 1 uM, 0.3 uM and 0.1 uM and cultured for 18 hours. LPS alone served as the positive control. TNFα production in the supernatant was measured by Meso Scale Discovery immunoassay and the ability of the substances to rescue TNFα production was calculated as a percentage of LPS stimulation and KA-induced inhibition and normalized to the donor-specific response with the reference AHR antagonist compound GNF-351 (Smith et al., J Pharmacol Exp Ther, 2011, 338(1):318-27).

For assay [3], the target named is T1, AHR. Description: In vitro assay 3: AHR-regulated CYP1A1 expression in human cell line (U937, qPCR, KA stimulation). The settings on record: U937 cells, 200 uM KA, 6 hours, CYP1A1 expression by qPCR; read-out: Assay 3: Hum CYP1A1 Antagonism IC50. A digest of the protocol: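 U937 human monocytic cells were stimulated with 200 uM KA for 6 h, with or without compound at eight concentrations from 1 nM to 3 uM, in duplicate. CYP1A1 mRNA was quantified by Taqman qPCR as fold expression normalised to HPRT. Unstimulated cells served as negative control.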
(In general: Real-time PCR tracks product formation cycle by cycle.)

In the case of `O=C(NCC(O)C(F)F)c1cc(-c2ccc(Cl)cc2)nn(-c2cccnc2)c1=O` (racemic) [Example 79, 6-(4-Chlorophenyl)-N-[(2RS)-3,3-difluoro-2-hydroxypropyl]-3-oxo-2-(pyridin-3-yl)-2,3-dihydropyridazine-4-carboxamide], the IC50 at AHR [1] was more than 20000 nM; on AHR [2], 39.5 nM; at AHR [3], 80.4 nM. For the same compound, the “Individual Donors Conc of highest rescue” value in the assay with human monocytes is 0.3 µM and 0.1 µM. The “Individual Donors % rescue TNFα normalised to ref cmpd” value in the assay on human monocytes is 76% and 63%.

Take `O=C(NC(CO)C(F)(F)F)c1cc(-c2ccc(C(F)(F)F)cc2)nn(-c2cccnc2)c1=O` (racemic) [Example 110, 3-Oxo-2-(pyridin-3-yl)-N-[(2RS)-1,1,1-trifluoro-3-hydroxypropan-2-yl]-6-[4-(trifluoromethyl)phenyl]-2,3-dihydropyridazine-4-carboxamide]: the IC50 on AHR [1] was more than 20000 nM. Moreover, the IC50 on AHR [2] came out at 3.31 nM. In the assay with human monocytes, the “Individual Donors Conc of highest rescue” value is 0.1 µM and 0.3 µM; the “Individual Donors % rescue TNFα normalised to ref cmpd” value was 85% and 42%.

Regarding `CCC(CO)NC(=O)c1cc(-c2ccc(C)cc2)nn(-c2cnn(C)c2)c1=O` (single isomer, unassigned) [Example 5, N-(1-Hydroxybutan-2-yl)-6-(4-methylphenyl)-2-(1-methyl-1H-pyrazol-4-yl)-3-oxo-2,3-dihydropyridazine-4-carboxamide], the IC50 on AHR [1] was more than 20000 nM; at AHR [2], 5.99 nM; on AHR [3] it was 3.45 nM. In addition, the “Individual Donors Conc of highest rescue” value with human monocytes stood at 1 µM. Further, the “Individual Donors % rescue TNFα normalised to ref cmpd” value in the assay with human monocytes was 67% and 99% and 61%.

For the compound `O=C(NCC(O)C(F)F)c1cc(-c2ccc(Cl)cc2)nn(-c2cccnc2)c1=O` (single isomer, unassigned; (+)) [Example 88, (+)-6-(4-Chlorophenyl)-N-(3,3-difluoro-2-hydroxypropyl)-3-oxo-2-(pyridin-3-yl)-2,3-dihydropyridazine-4-carboxamide], the IC50 was more than 20000 nM on AHR [1] and 78 nM at AHR [2]. Also, the “Individual Donors Conc of highest rescue” value in the assay with human monocytes was found to be 1 µM. Further, the “Individual Donors % rescue TNFα normalised to ref cmpd” value in the assay on human monocytes is 69% and 35%.

As to `Cn1cc(-n2nc(-c3ccc(C(F)(F)F)cc3)cc(C(=O)N[C@H](CO)C(F)(F)F)c2=O)cn1` [Example 36, 2-(1-Methyl-1H-pyrazol-4-yl)-3-oxo-N-[(2R)-1,1,1-trifluoro-3-hydroxypropan-2-yl]-6-[4-(trifluoromethyl)phenyl]-2,3-dihydropyridazine-4-carboxamide], the IC50 at AHR [1] is more than 20000 nM. In the assay on human monocytes, the “Individual Donors Conc of highest rescue” value turned out to be 1 µM; the “Individual Donors % rescue TNFα normalised to ref cmpd” value is 74% and 65%.

`COC[C@H](CO)NC(=O)c1cc(-c2ccc(Cl)cc2)nn(-c2cnn(C)c2)c1=O` [Example 29, 6-(4-Chlorophenyl)-N-[(2S)-1-hydroxy-3-methoxypropan-2-yl]-2-(1-methyl-1H-pyrazol-4-yl)-3-oxo-2,3-dihydropyridazine-4-carboxamide]: the IC50 on AHR [1] is more than 20000 nM. The 50% inhibitory concentration (IC50) on AHR [2] stood at 76.1 nM. In addition, in the assay with human monocytes, the “Individual Donors Conc of highest rescue” value stood at 1 µM; the “Individual Donors % rescue TNFα normalised to ref cmpd” value is 66% and 88%.

For `C[C@H](CO)NC(=O)c1cc(-c2ccc(Cl)cc2)nn(-c2cccnc2)c1=O` [Example 69, 6-(4-Chlorophenyl)-N-[(2R)-1-hydroxypropan-2-yl]-3-oxo-2-(pyridin-3-yl)-2,3-dihydropyridazine-4-carboxamide], the IC50 was more than 20000 nM on AHR [1] and 214 nM on AHR [2]. In the assay with human monocytes, the “Individual Donors Conc of highest rescue” value was 0.1 µM. In addition, the “Individual Donors % rescue TNFα normalised to ref cmpd” value in the assay with human monocytes was 88% and 97%.

As for `COCC(O)CNC(=O)c1cc(-c2ccc(Cl)cc2)nn(-c2cnn(C)c2)c1=O` (centres unmarked) [Example 24, 6-(4-Chlorophenyl)-N-(2-hydroxy-3-methoxypropyl)-2-(1-methyl-1H-pyrazol-4-yl)-3-oxo-2,3-dihydropyridazine-4-carboxamide], at AHR [1], the IC50 is more than 20000 nM. Also, the IC50 at AHR [2] amounted to 87.5 nM. Moreover, in the assay on human monocytes, the “Individual Donors Conc of highest rescue” value was 0.3 µM and 1 µM; the “Individual Donors % rescue TNFα normalised to ref cmpd” value is 84% and 59%.

For `Cn1cc(-n2nc(-c3ccc(Cl)cc3)cc(C(=O)NCC(O)C(F)F)c2=O)cn1` (single isomer, unassigned; (+)) [Example 23, (+)-6-(4-Chlorophenyl)-N-(3,3-difluoro-2-hydroxypropyl)-2-(1-methyl-1H-pyrazol-4-yl)-3-oxo-2,3-dihydropyridazine-4-carboxamide], at AHR [1], the IC50 is more than 20000 nM. The IC50 at AHR [2] came to 45.7 nM. In the assay with human monocytes, the “Individual Donors Conc of highest rescue” value was 1 µM; the “Individual Donors % rescue TNFα normalised to ref cmpd” value is 274% and 81%.

`O=C(N[C@H]1COC[C@H]1O)c1cc(-c2ccc(C(F)F)nc2)nn(-c2cccnc2)c1=O` (single isomer, unassigned) [Example 184, 6-[6-(Difluoromethyl)pyridin-3-yl]-N-[(cis)-4-hydroxytetrahydrofuran-3-yl]-3-oxo-2-(pyridin-3-yl)-2,3-dihydropyridazine-4-carboxamide]: the IC50 at AHR [1] is more than 20000 nM; on AHR [2], 3810 nM. The “Individual Donors Conc of highest rescue” value in the assay with human monocytes was 0.1 µM and 1 µM. In addition, the “Individual Donors % rescue TNFα normalised to ref cmpd” value with human monocytes is 63% and 62%.

With `Cc1ccc(-c2cc(C(=O)NC(C)CO)c(=O)n(-c3cnn(C)c3)n2)cc1` (centres unmarked) [Example 7, N-(1-Hydroxypropan-2-yl)-6-(4-methylphenyl)-2-(1-methyl-1H-pyrazol-4-yl)-3-oxo-2,3-dihydropyridazine-4-carboxamide], the IC50 is more than 20000 nM at AHR [1] and 20.5 nM on AHR [2]. In the assay with human monocytes, the “Individual Donors Conc of highest rescue” value was 0.1 μM and 1 μM (2×). The “Individual Donors % rescue TNFα normalised to ref cmpd” value with human monocytes is 126% and 63% and 49%.

Consider `Cn1cc(-n2nc(-c3ccc(Cl)cc3)cc(C(=O)NC[C@H](O)CO)c2=O)cn1` [Example 27, 6-(4-Chlorophenyl)-N-[(2S)-2,3-dihydroxypropyl]-2-(1-methyl-1H-pyrazol-4-yl)-3-oxo-2,3-dihydropyridazine-4-carboxamide], for which the concentration for half-maximal inhibition (IC50) at AHR [1] is more than 20000 nM. Besides, on AHR [2], the IC50 amounted to 177 nM. Moreover, in the assay with human monocytes, the “Individual Donors Conc of highest rescue” value was 1 µM and 0.3 µM; the “Individual Donors % rescue TNFα normalised to ref cmpd” value is 87% and 105%.

As for `CC(C)(O)C(NC(=O)c1cc(-c2ccc(Cl)cc2)nn(-c2cncnc2)c1=O)C(F)(F)F` (single isomer, unassigned) [Example 186, 6-(4-Chlorophenyl)-3-oxo-2-(pyrimidin-5-yl)-N-(1,1,1-trifluoro-3-hydroxy-3-methylbutan-2-yl)-2,3-dihydropyridazine-4-carboxamide], the IC50 at AHR [1] is more than 20000 nM. Besides, the IC50 at AHR [2] is 131 nM. Besides, in the assay with human monocytes, the “Individual Donors Conc of highest rescue” value is 0.1 µM and 0.3 µM; the “Individual Donors % rescue TNFα normalised to ref cmpd” value was 65% and 108%.
